The values that follow come from patent publication US20140343017A1, “PYRROLE COMPOUND” (Kabushiki Kaisha Yakult Honsha, priority 2012, published 2014).

Counter-ions that a name gives are not always drawn. Like-named read-outs stand apart in the source and are kept apart here.

Common to all, as to experiment: Inhibitory effect on growth of human cancer cells (in vitro), WST-8
Type in all cases: cell-based

For assay [1], the system named is human non-small cell lung cancer A549 cells. The following applies: 96 hours culture. The procedure:
(§1) Each pyrrole compound of the present invention was studied for its effects on the growth of human non-small cell lung cancer A549 cells and human colorectal cancer HT-29 cells and HCT116 cells. The cells of each line were suspended in an RPMI1640 medium supplemented with 10% fetal bovine serum and inoculated at a cell density of 1000 cells/50 μL/well to a 96-well plate. After overnight culture, each compound diluted with a medium was added thereto at a concentration of 50 μL/well, and the cells were further cultured for 96 hours. After the completion of culture, WST-8 (Seikagaku Corp.) was added thereto at a concentration of 10 μL/well, and the cells were cultured at 37° C. for approximately 1 hour under 5% CO2 conditions, followed by measurement of absorbance at 450 nm.

In assay [2] the test system is human colorectal cancer HCT116 cells. As to conditions: 96 hours culture. The method, then: as §1
The test system of assay [3] is human colorectal cancer HT-29 cells. As to conditions: 96 hours culture, read-out: IC50 (nM) HT29. The procedure:
as §1

Usually IC50 stands for the concentration that gives 50% inhibition. For `COc1ccc(C(=O)c2c(CCl)[nH]c(-c3nnn(CCOC(C)=O)n3)c2C)cc1Br` [Compound 172, 2-(5-(4-(3-bromo-4-methoxybenzoyl)-5-(chloromethyl)-3-methyl-1H-pyrrol-2-yl)-2H-tetrazol-2-yl)ethyl acetate], the IC50 in assay [1] (Homo sapiens, A549, 96 h) was 47 nM; in assay [2] (Homo sapiens, HCT-116, 96 h), 36.9 nM; in assay [3] (Homo sapiens, HT-29, 96 h) it was 34.5 nM.
The like results for `Cc1[nH]c(-c2nnc(C3CC3)o2)c(C)c1C(=O)c1ccc(OCCN)c(Br)c1` [Compound 256, (4-(2-aminoethoxy)-3-bromophenyl)(5-(5-cyclopropyl-1,3,4-oxadiazol-2-yl)-2,4-dimethyl-1H-pyrrol-3-yl)methanone] were, in that order, 95.9 nM, 43.2 nM and 36.2 nM.
Consider `Cc1[nH]c(-c2nnn(CCO)n2)c(C)c1C(=O)c1cccc(C2CC2)c1` [Compound 115, (3-cyclopropylphenyl)(5-(2-(2-hydroxyethyl)-2H-tetrazol-5-yl)-2,4-dimethyl-1H-pyrrol-3-yl)methanone], for which the IC50 was 49.2 nM in assay [1] (Homo sapiens, A549, 96 h); 41 nM in assay [2] (Homo sapiens, HCT-116, 96 h); 42.5 nM in assay [3] (Homo sapiens, HT-29, 96 h).
Consider `COc1ccc(C(=O)c2c(C(F)F)[nH]c(-c3nnn(CCOC(C)=O)n3)c2C)cc1Br` [Compound 126, 2-(5-(4-(3-bromo-4-methoxybenzoyl)-5-(difluoromethyl)-3-methyl-1H-pyrrol-2-yl)-2H-tetrazol-2-yl)ethyl acetate], for which the IC50 came out at 38.2 nM in assay [1] (Homo sapiens, A549, 96 h); 38.2 nM in assay [2] (Homo sapiens, HCT-116, 96 h); 33.1 nM in assay [3] (Homo sapiens, HT-29, 96 h).
As to `COc1ccc(Br)cc1C(=O)c1c(C=O)[nH]c(-c2nnc(C3CC3)o2)c1C` [Compound 258, 3-(5-bromo-2-methoxybenzoyl)-5-(5-cyclopropyl-1,3,4-oxadiazol-2-yl)-4-methyl-1H-pyrrole-2-carboaldehyde], the IC50 was found to be 50.5 nM in assay [1] (Homo sapiens, A549, 96 h); 45.4 nM in assay [2] (Homo sapiens, HCT-116, 96 h); 30.9 nM in assay [3] (Homo sapiens, HT-29, 96 h).
The like results for `Cc1[nH]c(-c2nnn(CCOC(=O)CN)n2)c(C)c1C(=O)c1cccc(Br)c1` [Compound 152, 2-(5-(4-(3-bromobenzoyl)-3,5-dimethyl-1H-pyrrol-2-yl)-2H-tetrazol-2-yl)ethyl 2-aminoacetate] were, in that order, 10.8 nM, 7.8 nM and 8.3 nM.
On the same counts, the results for `COc1ccc(C(=O)c2c(CN3CCCCC3)[nH]c(-c3nnc(C4CC4)o3)c2C)cc1Br` [Compound 270, (3-bromo-4-methoxyphenyl)(5-(5-cyclopropyl-1,3,4-oxadiazol-2-yl)-4-methyl-2-(piperidin-1-ylmethyl)-1H-pyrrol-3-yl)methanone] are 859 nM, 819 nM and 725 nM.
On the same counts, the results for `COc1ccc(C(=O)c2c(C#N)[nH]c(-c3nnn(CCOC(C)=O)n3)c2C)cc1Br` [Compound 138, 2-(5-(4-(3-bromo-4-methoxybenzoyl)-5-cyano-3-methyl-1H-pyrrol-2-yl)-2H-tetrazol-2-yl)ethyl acetate] are 239 nM, 167 nM and 170 nM.
Consider `CCn1nnc(-c2[nH]c(C)c(C(=O)c3ccc(OCCN)c(Br)c3)c2C)n1` [Compound 302, (4-(2-aminoethoxy)-3-bromophenyl)(5-(2-ethyl-2H-tetrazol-5-yl)-2,4-dimethyl-1H-pyrrol-3-yl)methanone hydrochloride], for which the IC50 worked out at 47.4 nM in assay [1] (hydrochloride), 35 nM in assay [2] (hydrochloride) and 33 nM in assay [3] (hydrochloride).
`COc1ccc(C(=O)c2c(C#N)[nH]c(-c3nnn(CCO)n3)c2C)cc1Br` [Compound 139, 3-(3-bromo-4-methoxybenzoyl)-5-(2-(2-hydroxyethyl)-2H-tetrazol-5-yl)-4-methyl-1H-pyrrole-2-carbonitrile]: the IC50 in assay [1] (Homo sapiens, A549, 96 h) came out at 245 nM; in assay [2] (Homo sapiens, HCT-116, 96 h), 171 nM; in assay [3] (Homo sapiens, HT-29, 96 h) it was 174 nM.
The like results for `Cc1[nH]c(-c2nnc(C3(C)CC3)o2)c(C)c1C(=O)c1cccc(Br)c1` [Compound 189, (3-bromophenyl)(2,4-dimethyl-5-(5-(1-methylcyclopropyl)-1,3,4-oxadiazol-2-yl)-1H-pyrrol-3-yl)methanone] were, in that order, 164 nM, 199 nM and 135 nM.
The like results for `CCc1nnc(-c2[nH]c(C)c(C(=O)c3ccc(OCCN)c(Br)c3)c2C)o1` [Compound 251, (4-(2-aminoethoxy)-3-bromophenyl)(5-(5-ethyl-1,3,4-oxadiazol-2-yl)-2,4-dimethyl-1H-pyrrol-3-yl)methanone] were, in that order, 191 nM, 55.3 nM and 102 nM.
Regarding `Cc1[nH]c(-c2nnc(C3CC3)o2)c(C)c1C(=O)c1cccc(OCCN)c1` [Compound 253, (3-(2-aminoethoxy)phenyl)(5-(5-cyclopropyl-1,3,4-oxadiazol-2-yl)-2,4-dimethyl-1H-pyrrol-3-yl)methanone], the IC50 in assay [1] (Homo sapiens, A549, 96 h) was found to be 351 nM; in assay [2] (Homo sapiens, HCT-116, 96 h), 45.2 nM; in assay [3] (Homo sapiens, HT-29, 96 h), 146 nM.
On the same counts, the results for `COc1ccc(C(=O)c2c(CO)[nH]c(-c3nnn(CCO)n3)c2C)cc1Br` [Compound 129, (3-bromo-4-methoxyphenyl)(5-(2-(2-hydroxyethyl)-2H-tetrazol-5-yl)-2-(hydroxymethyl)-4-methyl-1H-pyrrol-3-yl)methanone] are 46.9 nM, 41.2 nM and 34.2 nM.
The like results for `COc1ccc(Br)cc1C(=O)c1c(C)[nH]c(-c2nnc(COC(C)=O)o2)c1C` [Compound 202, (5-(4-(5-bromo-2-methoxybenzoyl)-3,5-dimethyl-1H-pyrrol-2-yl)-1,3,4-oxadiazol-2-yl)methyl acetate] were, in that order, 127 nM, 62.4 nM and 50.5 nM.
On the same counts, the results for `CC(=O)OCCn1nnc(-c2[nH]c(CCl)c(C(=O)c3cccc(Br)c3)c2C)n1` [Compound 171, 2-(5-(4-(3-bromobenzoyl)-5-(chloromethyl)-3-methyl-1H-pyrrol-2-yl)-2H-tetrazol-2-yl)ethyl acetate] are 47.4 nM, 37.7 nM and 35.7 nM.
For the compound `Cc1[nH]c(-c2nnc(C3CC3)o2)c(C)c1C(=O)c1ccc(OCCN(C)C)c(Br)c1` [Compound 257, (3-bromo-4-(2-(dimethylamino)ethoxy)phenyl) (5-(5-cyclopropyl-1,3,4-oxadiazol-2-yl)-2,4-dimethyl-1H-pyrrol-3-yl)methanone], the IC50 came out at 865 nM in assay [1] (Homo sapiens, A549, 96 h); 865 nM in assay [2] (Homo sapiens, HCT-116, 96 h); 384 nM in assay [3] (Homo sapiens, HT-29, 96 h).
Take `Cc1[nH]c(-c2nnc(C3CC3)o2)c(C)c1C(=O)c1ccc(O)c(Br)c1` [Compound 254, (3-bromo-4-hydroxyphenyl)(5-(5-cyclopropyl-1,3,4-oxadiazol-2-yl)-2,4-dimethyl-1H-pyrrol-3-yl)methanone]: the IC50 came out at 55.1 nM in assay [1] (Homo sapiens, A549, 96 h); 44.5 nM in assay [2] (Homo sapiens, HCT-116, 96 h); 33.2 nM in assay [3] (Homo sapiens, HT-29, 96 h).
`CCc1nnc(-c2[nH]c(C)c(C(=O)c3cccc([N+](=O)[O-])c3)c2C)o1` [Compound 195, (5-(5-ethyl-1,3,4-oxadiazol-2-yl)-2,4-dimethyl-1H-pyrrol-3-yl)(3-nitrophenyl)methanone]: the IC50 was 12.2 nM in assay [1] (Homo sapiens, A549, 96 h); 9.9 nM in assay [2] (Homo sapiens, HCT-116, 96 h); 8.5 nM in assay [3] (Homo sapiens, HT-29, 96 h).
On the same counts, the results for `Cc1c(-c2nnn(CCN)n2)[nH]c(CO)c1C(=O)c1cccc(Br)c1` [Compound 280, (5-(2-(2-aminoethyl)-2H-tetrazol-5-yl)-2-(hydroxymethyl)-4-methyl-1H-pyrrol-3-yl) (3-bromophenyl)methanone] are 250 nM, 250 nM and 194 nM.
The like results for `Cc1c(-c2nnn(CCO)n2)[nH]c(C(C)(C)O)c1C(=O)c1cccc(Br)c1` [Compound 285, (3-bromophenyl)(5-(2-(2-hydroxyethyl)-2H-tetrazol-5-yl)-2-(2-hydroxypropan-2-yl)-4-methyl-1H-pyrrol-3-yl)methanone] were, in that order, 595 nM, 246 nM and 598 nM.
On to `Cc1c(-c2nnn(CCO)n2)[nH]c(C=O)c1C(=O)c1cccc(Br)c1` [Compound 117, 3-(3-bromobenzoyl)-5-(2-(2-hydroxyethyl)-2H-tetrazol-5-yl)-4-methyl-1H-pyrrole-2-carboaldehyde], for which the IC50 is 83 nM in assay [1] (Homo sapiens, A549, 96 h); 118 nM in assay [2] (Homo sapiens, HCT-116, 96 h); 42.1 nM in assay [3] (Homo sapiens, HT-29, 96 h).
On the same counts, the results for `Cc1c(-c2nnc(C3CC3)o2)[nH]c(C(F)F)c1C(=O)c1cccc(Br)c1` [Compound 265, (3-bromophenyl)(5-(5-cyclopropyl-1,3,4-oxadiazol-2-yl)-2-(difluoromethyl)-4-methyl-1H-pyrrol-3-yl)methanone] are 46 nM, 158 nM and 37.1 nM.
On the same counts, the results for `Cc1[nH]c(-c2nnc(C3(O)CC3)o2)c(C)c1C(=O)c1cccc(Br)c1` [Compound 188, (3-bromophenyl)(5-(5-(1-hydroxycyclopropyl)-1,3,4-oxadiazol-2-yl)-2,4-dimethyl-1H-pyrrol-3-yl)methanone] are 37.8 nM, 40.4 nM and 35.1 nM.
Regarding `CCc1nnc(-c2c(C)c(C(=O)c3cccc(Br)c3)c(C)n2CCO)o1` [Compound 236, (3-bromophenyl) (1-(2-hydroxyethyl)-2,4-dimethyl-5-(5-ethyl-1,3,4-oxadiazol-2-yl)-1H-pyrrol-3-yl)methanone], the IC50 came out at 469 nM in assay [1] (Homo sapiens, A549, 96 h); 231 nM in assay [2] (Homo sapiens, HCT-116, 96 h); 168 nM in assay [3] (Homo sapiens, HT-29, 96 h).
